Source: article PMC4438668, “Quantitative High-Throughput Identification of Drugs as Modulators of Human Constitutive Androstane Receptor” (Scientific Reports, 2015)
Entries after “also recorded” stand apart in the source; their conditions may differ.

Columns and labels:
human CAR (hCAR) [1] = molecular target: T1, human CAR (hCAR) (Homo sapiens, UniProt Q14994); assay: hCAR luciferase reporter qHTS, agonist mode (HepG2-CYP2B6-hCAR cells, PK11195 co-treatment); conditions: for Identified as hCAR agonist in the qHTS: primary qHTS of 2816 NPC compounds; for EC50 / Follow-up Confirmation Efficacy / Primary Screen Efficacy: agonist mode; for Follow-up Confirmation Efficacy: relative to CITCO (100%); for Primary Screen Efficacy: relative to CITCO Emax (100%)
T1 sequence (Q14994 1-348 isoform Q14994-2): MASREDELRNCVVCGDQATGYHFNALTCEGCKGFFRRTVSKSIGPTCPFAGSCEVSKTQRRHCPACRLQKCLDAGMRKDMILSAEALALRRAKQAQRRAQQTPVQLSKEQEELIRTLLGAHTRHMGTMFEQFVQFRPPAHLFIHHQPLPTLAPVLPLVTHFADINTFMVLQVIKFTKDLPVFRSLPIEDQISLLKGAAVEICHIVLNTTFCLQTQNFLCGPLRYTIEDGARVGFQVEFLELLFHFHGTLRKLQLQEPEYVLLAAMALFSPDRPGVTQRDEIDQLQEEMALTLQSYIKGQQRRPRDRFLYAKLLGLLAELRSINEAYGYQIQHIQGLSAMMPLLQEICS

human CAR (hCAR) [2] = molecular target: T1, human CAR (hCAR); assay: hCAR luciferase reporter qHTS, antagonist mode (HepG2-CYP2B6-hCAR cells, CITCO co-treatment); conditions: for IC50 / Follow-up Confirmation Efficacy / Primary Screen Efficacy: antagonist mode; for Follow-up Confirmation Efficacy / Primary Screen Efficacy: relative to PK11195 (100%);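 on all read-outs here: stable HepG2 line carrying hCAR plus a CYP2B6 promoter (PBREM/XREM) luciferase reporter, 1536-well format, 24 h compound exposure at 37 °C, then luminescence read with ONE-Glo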
HepG2-CYP2B6-hCAR cells = assay: Cell viability assay (CellTiter-Glo ATP quantitation); type: cell-based, human; design: key to Cytotoxicity (activity call): Inactive: considered inactive if efficacy is less than 30%; conditions: 24 h
Method: The potential cytotoxicity of the NPC compounds in HepG2-CYP2B6-hCAR cells was measured using a luciferase-coupled ATP quantitation assay (CellTiter-Glo viability assay, Promega). The change of intracellular ATP content indicates the number of metabolically competent cells. The cells were seeded at 2,500 cells/5 μl in 1536-well plates and were exposed to each test compound at concentrations and treatment duration as previously mentioned. The assay plates were incubated for 24 h at 37 °C, followed by the addition of 4 μl/well of CellTiter-Glo reagent. After 30 min incubation at RT, the luminescence intensity of the plates was measured using a ViewLux plate reader.

CAR, CYP2B6, or CYP3A4 = conditions: previously known; reference not given; cited from earlier work
EYFP-hCAR = molecular target: T2, EYFP-hCAR (Homo sapiens, UniProt Q14994); assay: Nuclear translocation of Ad/EYFP-hCAR in human primary hepatocytes; type: cell-based; conditions: HPH
T2 construct: expressed in transfected cells; host or cells: human primary hepatocytes infected with Ad/EYFP-hCAR
T2 sequence (Q14994 1-348 isoform Q14994-2): T1 sequence (Q14994 1-348 isoform Q14994-2)
Method: A recombinant adenovirus expressing enhanced yellow fluorescent protein-tagged hCAR (Ad/EYFP-hCAR) was generated as described previously. Hepatocytes cultured in 96-well collagen-coated plates in serum free Williams’ E medium were infected with Ad/EFYP-hCAR (1 μl/well) for 12 h before treatment with the vehicle control, DMSO (0.1%), PB (1 mM), and selected compounds for another 8 h. Subcellular localization of hCAR was visualized using a Nikon (Tokyo, Japan) C1-LU3 instrument based on an inverted Nikon Eclipse TE2000 microscope.

CYP3A4 = CYP3A4 mRNA expression in HPH (real-time PCR); type: cell-based, human; conditions: HPH, 24 h, vs vehicle control (0.1% DMSO)
CYP2B6 = CYP2B6 mRNA expression in HPH (real-time PCR); conditions: HPH
hPXR = molecular target: T3, hPXR (Homo sapiens, UniProt O75469); assay: Transient hPXR luciferase assay in HepG2 cells (CYP2B6-2.2 kb reporter); type: cell-based; conditions: HepG2, 24 h, in the presence or absence of rifampicin (10 μM)
T3 construct: expressed in transfected cells; host or cells: HepG2 (transient transfection)
T3 sequence (O75469 1-434): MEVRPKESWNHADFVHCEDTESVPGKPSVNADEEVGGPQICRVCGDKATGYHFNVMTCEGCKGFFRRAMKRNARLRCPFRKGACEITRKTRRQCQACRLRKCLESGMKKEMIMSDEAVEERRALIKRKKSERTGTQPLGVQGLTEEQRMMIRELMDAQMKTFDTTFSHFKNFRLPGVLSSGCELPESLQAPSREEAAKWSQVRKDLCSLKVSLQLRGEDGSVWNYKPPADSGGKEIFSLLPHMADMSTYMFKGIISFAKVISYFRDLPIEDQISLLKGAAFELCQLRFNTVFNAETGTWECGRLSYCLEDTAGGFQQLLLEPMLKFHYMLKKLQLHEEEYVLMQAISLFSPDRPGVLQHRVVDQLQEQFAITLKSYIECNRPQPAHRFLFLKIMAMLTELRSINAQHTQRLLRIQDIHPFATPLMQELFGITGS
Method: HepG2 cells cultured in a 24-well plate were co-transfected with the CYP2B6-2.2 kb reporter and hPXR expression vectors using a Lipofectamine® 2000 Transfection Kit (Life Technologies) following the manufacturer’s instruction. […] Cell lysates were assayed for firefly luciferase activities normalized against the activities of co-transfected Renilla luciferase using a Dual-Luciferase Kit (Promega). Data were represented as mean±SD of three individual transfections.

[3] = Follow-up Confirmation Potency (EC50), follow-up cherry-pick, 11-point titration
[4] = Primary Screen Potency (EC50), primary qHTS, 2.5 μM PK11195, 24 h
[5] = Follow-up Confirmation Potency (IC50), follow-up cherry-pick, 11-point titration
[6] = Primary Screen Potency (IC50), primary qHTS, 0.1 μM CITCO, 24 h

Row | SMILES | EC50 (human CAR (hCAR) [1]; [3]) [µM] | EC50 (human CAR (hCAR) [1]; [4]) [µM] | Follow-up Confirmation Efficacy (human CAR (hCAR) [1]; follow-up cherry-pick) [%] | Primary Screen Efficacy (human CAR (hCAR) [1]; primary qHTS) [%] | IC50 (human CAR (hCAR) [2]; [5]) [µM] | IC50 (human CAR (hCAR) [2]; [6]) [µM] | Follow-up Confirmation Efficacy (human CAR (hCAR) [2]; follow-up cherry-pick) [%] | Primary Screen Efficacy (human CAR (hCAR) [2]; primary qHTS) [%] | Cytotoxicity (activity call) (HepG2-CYP2B6-hCAR cells) | Known modulator of CAR, CYP2B6, or CYP3A4? (CAR, CYP2B6, or CYP3A4) | Effect on CYP3A4 mRNA expression (CYP3A4) | also measured
1 | Cc1cccc(N(C)C(=S)Oc2ccc3ccccc3c2)c1 [tolnaftate] |  |  |  |  |  |  |  |  |  |  |  | Identified as hCAR agonist in the qHTS (human CAR (hCAR) [1]): agonists identified
2 | CCCCNc1c(C(=O)OCC)c(C)nc2c1cnn2CC [Tracazolate] | 24 | 17 | 101 | 27 |  |  |  |  |  |  |  | 
3 | CO[C@@]12[C@H](COC(N)=O)C3=C(C(=O)C(C)=C(N)C3=O)N1C[C@@H]1N[C@@H]12 [Mitomycin C] |  |  |  |  | 0.75 | 0.43 | -110 | -91 | Inactive | PXR deactivator |  | Identified as hCAR antagonist/deactivator in the qHTS (human CAR (hCAR) [2]; primary qHTS of 2816 NPC compounds): antagonist of hCAR
4 | Clc1ccc(-c2nc3sccn3c2C=NOCc2ccc(Cl)c(Cl)c2)cc1 [CITCO, 6-(4-chlorophenyl) imidazo[2,1-b][1,3]-thiazole-5-carbaldehyde-O-(3,4-dichlorobenzyl)oxime] |  |  |  |  |  |  |  |  |  |  |  | Effect on hCAR activity (antagonist mode optimization, Fig. 4A) (human CAR (hCAR) [2]; PK11195 at varying concentrations, CITCO co-treatment at 75 nM, 100 nM, or 200 nM): moderate but concentration-dependent increase of the basal activity of hCAR; Effect on hCAR activity (agonist mode optimization, Fig. 1A) (human CAR (hCAR) [1]; PK11195 at 2.5 μM and 5.0 μM, CITCO co-treated with PK11195): restored the hCAR activity in a concentration-dependent manner
5 | CCC1(c2ccccc2)C(=O)NC(=O)NC1=O [PB, phenobarbital] |  |  |  |  |  |  |  |  |  |  |  | Nuclear localization of EYFP-hCAR (EYFP-hCAR; 1 mM): 99%
6 | O=C(Nc1ccc(Cl)cc1)Nc1ccc(Cl)c(Cl)c1 [triclocarban] |  |  |  |  |  |  |  |  |  |  |  | Identified as hCAR agonist in the qHTS (human CAR (hCAR) [1]): agonists identified
7 | CC[C@@]1(O)C(=O)OCc2c1cc1n(c2=O)Cc2cc3c(CN(C)C)c(O)ccc3nc2-1 [Topotecan] |  |  |  |  | 0.36 | 0.06 | -109 | -94 | Inactive |  | negligible effect | 
8 | CCO[C@H]1O[C@@H]2O[C@@]3(C)CC[C@H]4[C@H](C)CC[C@@H]([C@H]1C)[C@@]24OO3 [Artemotil] | 5 | 2.1 | 71 | 33 |  |  |  |  |  | Activates CAR and Induces CYP2B6 | markedly enhanced | Effect on CYP2B6 mRNA expression (CYP2B6; 24 h, vs vehicle control (0.1% DMSO)): significantly induced
9 | Nc1ncnc2c1ncn2CCOCP(=O)(O)O [Adefovir] |  |  |  |  | 0.77 | 0.76 | -87 | -102 | Inactive | CYP3A4 inhibitor | negligible effect | Effect on basal and RIF-induced PXR activity (hPXR): no effects on either basal or RIF-induced hPXR activation
10 | CN1CCc2cccc3c2[C@H]1Cc1ccc(O)c(O)c1-3 [Apomorphine] | 13.3 | 19 | 38 | 21 |  |  |  |  |  |  |  | Induction of hCAR target genes (CYP2B6; target genes CYP2B6 and CYP3A4): negligible induction; also recorded: nor induced the expression of its target genes; hCAR nuclear translocation (in words) (EYFP-hCAR): didn’t translocate hCAR; also recorded: neither translocated hCAR
